# ChEMBL document CHEMBL3217756, “Biological and computational evaluation of an oxadiazole derivative (MD77) as a new lead for direct STAT3 inhibitors” (Medchemcomm, 2012)
# Columns and labels:
# [1] = test system: HOP-92; experiment: Cytotoxicity against human HOP92 cells after 48 hrs by sulforhodamine B assay; type: functional; details: HOP-92, 48 h
# [2] = test system: A498; experiment: Cytotoxicity against human A498 cells after 48 hrs by sulforhodamine B assay; type: functional; details: A498, 48 h
# [3] = target: Signal transducer and activator of transcription 1-alpha/beta (Homo sapiens) (UniProt P42224); experiment: Inhibition of SH2 domain of STAT1 (unknown origin) using FITC-GpYDKPHVL as substrate at 30 uM preincubated for 15 mins before substrate addition measured after 90 mins by alphascreen based assay
# [4] = test system: MDA-MB-231; experiment: Cytotoxicity against human MDA-MB-231 cells after 48 hrs by sulforhodamine B assay; type: functional; details: MDA-MB-231, 48 h
# [5] = test system: NCI-H226; experiment: Cytotoxicity against human NCI-H226 cells after 48 hrs by sulforhodamine B assay; type: functional; details: NCI-H226, 48 h
# [6] = test system: NCI-H522; experiment: Cytotoxicity against human NCI-H522 cells after 48 hrs by sulforhodamine B assay; type: functional; details: NCI-H522, 48 h
# [7] = test system: SR; experiment: Cytotoxicity against human SR cells after 48 hrs by sulforhodamine B assay; type: functional
# [8] = Cytotoxicity against human HCT15 cells after 48 hrs by sulforhodamine B assay; type: functional; details: HCT-15, 48 h
# [9] = test system: 786-0; experiment: Cytotoxicity against human 786-0 cells after 48 hrs by sulforhodamine B assay; type: functional; details: 786-0, 48 h
# [10] = test system: SK-OV-3; experiment: Cytotoxicity against human SKOV3 cells after 48 hrs by sulforhodamine B assay; type: functional; details: SK-OV-3, 48 h
# [11] = Cytotoxicity against human OVCAR8 cells after 48 hrs by sulforhodamine B assay; type: functional; details: OVCAR-8, 48 h
# [12] = test system: MDA-MB-435; experiment: Cytotoxicity against human MDA-MB-435 cells after 48 hrs by sulforhodamine B assay; type: functional; details: MDA-MB-435, 48 h
# [13] = Cytotoxicity against human Hs 578T cells after 48 hrs by sulforhodamine B assay; type: functional
# [14] = test system: NCI-H322M; experiment: Cytotoxicity against human NCI-H322M cells after 48 hrs by sulforhodamine B assay; type: functional
# [15] = test system: HOP-62; experiment: Cytotoxicity against human HOP62 cells after 48 hrs by sulforhodamine B assay; type: functional; details: HOP-62, 48 h
# [16] = Cytotoxicity against human NCI-ADR-RES cells after 48 hrs by sulforhodamine B assay; type: functional
# [17] = test system: COLO 205; experiment: Cytotoxicity against human COLO205 cells after 48 hrs by sulforhodamine B assay; type: functional; details: COLO 205, 48 h
# [18] = test system: SK-MEL-28; experiment: Cytotoxicity against human SK-MEL-28 cells after 48 hrs by sulforhodamine B assay; type: functional; details: SK-MEL-28, 48 h
# [19] = test system: IGROV-1; experiment: Cytotoxicity against human IGROV1 cells after 48 hrs by sulforhodamine B assay; type: functional; details: IGROV-1, 48 h
# [20] = test system: MOLT-4; experiment: Cytotoxicity against human MOLT4 cells after 48 hrs by sulforhodamine B assay; type: functional; details: MOLT-4, 48 h
# [21] = test system: HCT-116; experiment: Cytotoxicity against human HCT116 cells after 48 hrs by sulforhodamine B assay; type: functional; details: HCT-116, 48 h
# [22] = read-out: LC50 (the source's name)
# [23] = read-out: pLC50 (the source's name) (converted)
# Chain of Signal transducer and activator of transcription 1-alpha/beta (Homo sapiens) (P42224 whole entry, the tested form may be a part): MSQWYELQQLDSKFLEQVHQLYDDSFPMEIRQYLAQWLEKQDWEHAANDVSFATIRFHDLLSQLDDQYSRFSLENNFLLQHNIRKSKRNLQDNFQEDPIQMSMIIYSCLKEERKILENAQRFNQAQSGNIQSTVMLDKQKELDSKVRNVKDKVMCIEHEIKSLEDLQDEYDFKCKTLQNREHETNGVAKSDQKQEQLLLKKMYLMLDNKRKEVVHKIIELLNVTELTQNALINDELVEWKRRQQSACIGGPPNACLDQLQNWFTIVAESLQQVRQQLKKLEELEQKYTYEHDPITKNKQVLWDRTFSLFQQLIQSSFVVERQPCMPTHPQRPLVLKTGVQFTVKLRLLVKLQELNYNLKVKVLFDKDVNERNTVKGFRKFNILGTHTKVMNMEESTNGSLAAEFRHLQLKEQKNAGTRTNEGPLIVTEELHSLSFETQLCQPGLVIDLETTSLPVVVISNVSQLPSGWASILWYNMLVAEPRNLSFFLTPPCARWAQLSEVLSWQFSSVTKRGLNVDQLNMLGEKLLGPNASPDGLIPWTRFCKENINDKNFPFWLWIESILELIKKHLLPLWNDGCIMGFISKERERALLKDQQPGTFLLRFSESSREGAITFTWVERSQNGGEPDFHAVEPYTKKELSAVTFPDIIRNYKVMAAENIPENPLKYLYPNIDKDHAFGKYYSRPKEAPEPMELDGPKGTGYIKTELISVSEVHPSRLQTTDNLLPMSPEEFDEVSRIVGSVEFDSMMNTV
structure (smiles),measurement,setting,value
O=C(Nc1nonc1-c1ccc(Cl)cc1)c1ccc(C(F)(F)F)cc1,GI50,[1]; read-out: GI50,0.668 µM
same,CC50,[1]; [22],> 100 µM
same,TGI,[1]; read-out: TGI,3.96 µM
same,GI50,[1]; read-out: pGI50 (converted),0.661 µM
same,CC50,[1]; [23],> 100 µM
same,TGI,[1]; read-out: pTGI (converted),3.98 µM
same,GI50,[2]; read-out: GI50,1.73 µM
same,LC50,[2]; read-out: LC50,> 100 µM
same,TGI,[2]; read-out: TGI,5.46 µM
same,GI50,[2]; read-out: pGI50 (converted),1.74 µM
same,LC50,[2]; read-out: pLC50 (converted),> 100 µM
same,TGI,[2]; read-out: pTGI (converted),5.5 µM
same,inhibition,[3],94.6%
same,GI50,[4]; read-out: GI50,2.79 µM
same,LC50,[4]; read-out: LC50,> 100 µM
same,TGI,[4]; read-out: TGI,7.59 µM
same,GI50,[4]; read-out: pGI50 (converted),2.82 µM
same,LC50,[4]; read-out: pLC50 (converted),> 100 µM
same,TGI,[4]; read-out: pTGI (converted),7.59 µM
same,GI50,[5]; read-out: GI50,2.48 µM
same,CC50,[5]; [22],> 100 µM
same,TGI,[5]; read-out: TGI,7.85 µM
same,GI50,[5]; read-out: pGI50 (converted),2.45 µM
same,CC50,[5]; [23],> 100 µM
same,TGI,[5]; read-out: pTGI (converted),7.76 µM
same,GI50,[6]; read-out: GI50,2.07 µM
same,CC50,[6]; [22],> 100 µM
same,TGI,[6]; read-out: TGI,7.12 µM
same,GI50,[6]; read-out: pGI50 (converted),2.09 µM
same,CC50,[6]; [23],> 100 µM
same,TGI,[6]; read-out: pTGI (converted),7.08 µM
same,GI50,[7]; read-out: GI50,2.85 µM
same,CC50,[7]; [22],> 100 µM
same,TGI,[7]; read-out: TGI,10.6 µM
same,GI50,[7]; read-out: pGI50 (converted),2.82 µM
same,CC50,[7]; [23],> 100 µM
same,TGI,[7]; read-out: pTGI (converted),10.7 µM
same,GI50,[8]; read-out: GI50,3.5 µM
same,CC50,[8]; [22],> 100 µM
same,TGI,[8]; read-out: TGI,> 100 µM
same,GI50,[8]; read-out: pGI50 (converted),3.47 µM
same,CC50,[8]; [23],> 100 µM
same,TGI,[8]; read-out: pTGI,> 100 µM
same,GI50,[9]; read-out: GI50,1.98 µM
same,LC50,[9]; read-out: LC50,> 100 µM
same,TGI,[9]; read-out: TGI,5.19 µM
same,GI50,[9]; read-out: pGI50 (converted),2 µM
same,LC50,[9]; read-out: pLC50 (converted),> 100 µM
same,TGI,[9]; read-out: pTGI,5.25 µM
same,GI50,[10]; read-out: GI50,2.92 µM
same,CC50,[10]; [22],> 100 µM
same,TGI,[10]; read-out: TGI,7.6 µM
same,GI50,[10]; read-out: pGI50 (converted),2.88 µM
same,CC50,[10]; [23],> 100 µM
same,TGI,[10]; read-out: pTGI (converted),7.59 µM
same,GI50,[11]; read-out: GI50,2.87 µM
same,CC50,[11]; [22],> 100 µM
same,TGI,[11]; read-out: TGI,> 100 µM
same,GI50,[11]; read-out: pGI50 (converted),2.88 µM
same,CC50,[11]; [23],> 100 µM
same,TGI,[11]; read-out: pTGI,> 100 µM
same,GI50,[12]; read-out: GI50,2.15 µM
same,LC50,[12]; read-out: LC50,> 100 µM
same,TGI,[12]; read-out: TGI,> 100 µM
same,GI50,[12]; read-out: pGI50 (converted),2.14 µM
same,LC50,[12]; read-out: pLC50 (converted),> 100 µM
same,TGI,[12]; read-out: pTGI,> 100 µM
same,GI50,[13]; read-out: GI50,2.53 µM
same,CC50,[13]; [22],> 100 µM
same,TGI,[13]; read-out: TGI,> 100 µM
same,GI50,[13]; read-out: pGI50 (converted),2.51 µM
same,CC50,[13]; [23],> 100 µM
same,TGI,[13]; read-out: pTGI,> 100 µM
same,GI50,[14]; read-out: GI50,1.78 µM
same,CC50,[14]; [22],> 100 µM
same,TGI,[14]; read-out: TGI,> 100 µM
same,GI50,[14]; read-out: pGI50 (converted),1.78 µM
same,CC50,[14]; [23],> 100 µM
same,TGI,[14]; read-out: pTGI,> 100 µM
same,GI50,[15]; read-out: GI50,2.93 µM
same,CC50,[15]; [22],> 100 µM
same,TGI,[15]; read-out: TGI,8.74 µM
same,GI50,[15]; read-out: pGI50 (converted),2.95 µM
same,CC50,[15]; [23],> 100 µM
same,TGI,[15]; read-out: pTGI (converted),8.71 µM
same,GI50,[16]; read-out: GI50,2.66 µM
same,CC50,[16]; [22],> 100 µM
same,GI50,[16]; read-out: pGI50 (converted),2.63 µM
same,CC50,[16]; [23],> 100 µM
same,GI50,[17]; read-out: GI50,3.8 µM
same,CC50,[17]; [22],41.3 µM
same,TGI,[17]; read-out: TGI,12 µM
same,GI50,[17]; read-out: pGI50 (converted),3.8 µM
same,CC50,[17]; [23],41.7 µM
same,TGI,[17]; read-out: pTGI (converted),12 µM
same,GI50,[18]; read-out: GI50,4.25 µM
same,LC50,[18]; read-out: LC50,> 100 µM
same,TGI,[18]; read-out: TGI,> 100 µM
same,GI50,[18]; read-out: pGI50 (converted),4.27 µM
same,LC50,[18]; read-out: pLC50 (converted),> 100 µM
same,TGI,[18]; read-out: pTGI,> 100 µM
same,GI50,[19]; read-out: GI50,4.72 µM
same,LC50,[19]; read-out: LC50,> 100 µM
same,TGI,[19]; read-out: TGI,> 100 µM
same,GI50,[19]; read-out: pGI50 (converted),4.68 µM
same,LC50,[19]; read-out: pLC50 (converted),> 100 µM
same,TGI,[19]; read-out: pTGI,> 100 µM
same,GI50,[20]; read-out: GI50,1.67 µM
same,CC50,[20]; [22],> 100 µM
same,TGI,[20]; read-out: TGI,6.05 µM
same,GI50,[20]; read-out: pGI50 (converted),1.66 µM
same,CC50,[20]; [23],> 100 µM
same,TGI,[20]; read-out: pTGI (converted),6.03 µM
same,GI50,[21]; read-out: GI50,2.17 µM
same,CC50,[21]; [22],> 100 µM
same,GI50,[21]; read-out: pGI50 (converted),2.19 µM
same,CC50,[21]; [23],> 100 µM
